Assay results from patent publication US9796686B2, “Antibacterial quinazoline-4(3H)-one derivatives” (priority 2014, dated 2017).
Values after ≈ are worked out from the molar mass of the structure shown. Where two headings read alike, the source gives them in different places.

Columns and labels:
Type in all cases: cell-based
[1] = test system: E. coli ATCC25922; experiment: Bacterial growth minimal inhibitory concentration, microdilution in cation-adjusted Mueller-Hinton Broth (CLSI M7-A7); settings: Escherichia coli, ATCC25922; quinolone-sensitive strain; read-out: MIC for E. coli ATCC25922
Procedure: (§1) Minimal Inhibitory Concentrations (MICs; mg/L) were determined in cation-adjusted Mueller-Hinton Broth by a microdilution method following the description given in “Methods for Dilution Antimicrobial Susceptibility Tests for Bacteria that Grow Aerobically”, Approved standard, 7th ed., Clinical and Laboratory Standards Institute (CLSI) Document M7-A7, Wayne, Pa., U.S.A. (2006).
(§2) All Example compounds were tested against several Gram-positive and Gram-negative bacteria. […] K. pneumoniae A-651 is a multiply-resistant strain (in particular quinolone-resistant), while E. coli ATCC25922 and P. aeruginosa ATCC27853 are quinolone-sensitive strains.

[2] = test system: K. pneumoniae A-651; experiment: as above; settings: Klebsiella pneumoniae, A651; multiply-resistant strain (in particular quinolone-resistant); read-out: MIC for K. Pneumoniae A-651
Procedure: as §1, §2

[3] = test system: P. aeruginosa ATCC27853; experiment: as above; settings: Pseudomonas aeruginosa, ATCC27853; quinolone-sensitive strain; read-out: MIC for P. aeruginosa ATCC27853
Procedure: as §1, §2

[4] = test system: wild-type E. coli A-1261; experiment: MIC against wild-type E. coli A-1261 with or without alkaline phosphatase or esterase; settings: Escherichia coli
Procedure: Minimal Inhibitory Concentrations (MICs; mg/L) were determined in cation-adjusted Mueller-Hinton Broth by a microdilution method following the description given in “Methods for Dilution Antimicrobial Susceptibility Tests for Bacteria that Grow Aerobically”, Approved standard, 7th ed., Clinical and Laboratory Standards Institute (CLSI) Document M7-A7, Wayne, Pa., U.S.A. (2006). The compound of Example 31 was tested against wild-type E. coli A-1261 in the absence of alkaline phosphatase, in the presence of an alkaline phosphatase and in the presence of an esterase. The corresponding antibacterial test results are given in Table 2 hereafter (MICs in mg/L).

SMILES	MIC [1] [µg/mL]	MIC [2] [µg/mL]	MIC [3] [µg/mL]	MIC ([4]; alkaline phosphatase 2 i.U./mL, read-out: MIC for E. coli A-1261 In the presence of an alkaline phosphatase (2 i.U./mL)) [µg/mL]	MIC ([4]; esterase 10 i.U./mL, read-out: MIC for E. coli A-1261 In the presence of an esterase (10 i.U./mL)) [µg/mL]	MIC ([4]; no alkaline phosphatase or esterase, read-out: MIC for E. coli A-1261 In the absence of alkaline phosphatase or esterase) [µg/mL]
CC(C)(O)C#CC#Cc1cc2ncn(CC[C@](C)(C(=O)NO)S(C)(=O)=O)c(=O)c2cc1F [Example 29, (R)-4-(6-fluoro-7-(5-hydroxy-5-methylhexa-1,3-diyn-1-yl)-4-oxoquinazolin-3(4H)-yl)-N-hydroxy-2-methyl-2-(methylsulfonyl)butanamide]	1 (≈ 2.16 µM)	1 (≈ 2.16 µM)	2 (≈ 4.32 µM)			
C[C@@](CCn1cnc2cc(C#CC#CC3(COP(=O)(O)O)CC3)ccc2c1=O)(C(=O)NO)S(C)(=O)=O [Example 31, (R)-(1-((3-(4-(hydroxyamino)-3-methyl-3-(methylsulfonyl)-4-oxobutyl)-4-oxo-3,4-dihydroquinazolin-7-yl)buta-1,3-diyn-1-yl)cyclopropyl)methyl dihydrogen phosphate]				0.5	> 16	> 16

Results, then the compound that gave them:

MIC [1] [µg/mL]	MIC [2] [µg/mL]	MIC [3] [µg/mL]	MIC ([4]; alkaline phosphatase 2 i.U./mL, read-out: MIC for E. coli A-1261 In the presence of an alkaline phosphatase (2 i.U./mL)) [µg/mL]	MIC ([4]; esterase 10 i.U./mL, read-out: MIC for E. coli A-1261 In the presence of an esterase (10 i.U./mL)) [µg/mL]	MIC ([4]; no alkaline phosphatase or esterase, read-out: MIC for E. coli A-1261 In the absence of alkaline phosphatase or esterase) [µg/mL]	SMILES
0.25	0.5	2				CN(C)CC#CC#Cc1cc2ncn(CC[C@](C)(C(=O)NO)S(C)(=O)=O)c(=O)c2cc1F.O=CO [Example 32, (R)-4-(7-(5-(dimethylamino)penta-1,3-diyn-1-yl)-6-fluoro-4-oxoquinazolin-3(4H)-yl)-N-hydroxy-2-methyl-2-(methylsulfonyl)butanamide formate]
0.25 (≈ 0.511 µM)	1 (≈ 2.04 µM)	2 (≈ 4.09 µM)				C[C@@](CCn1cnc2cc(C#CC#CC3(CO)CCC3)c(F)cc2c1=O)(C(=O)NO)S(C)(=O)=O [Example 34, (R)-4-(6-fluoro-7-((1-(hydroxymethyl)cyclobutyl)buta-1,3-diyn-1-yl)-4-oxoquinazolin-3(4H)-yl)-N-hydroxy-2-methyl-2-(methylsulfonyl)butanamide]
4 (≈ 8.14 µM)	4 (≈ 8.14 µM)	4 (≈ 8.14 µM)				C[C@@](CCn1cnc2cc(C#CC#CCC3(O)COC3)c(F)cc2c1=O)(C(=O)NO)S(C)(=O)=O [Example 35, (R)-4-(6-fluoro-7-(5-(3-hydroxyoxetan-3-yl)penta-1,3-diyn-1-yl)-4-oxoquinazolin-3(4H)-yl)-N-hydroxy-2-methyl-2-(methylsulfonyl)butanamide]
